Results on 2 molecules are retold here after patent publication US20030228281A1, “Use of mutant herpes viruses and anticancer agents in the treatment of cancer” (priority 2000, published 2003).

Entries after “also recorded” stand apart in the source; their conditions may differ.

One assay concerns GADD34 mRNA (OCUM cells). As to the kind of experiment: Northern hybridization for GADD34 in cells treated with MMC. Format: cell-based, human. The settings on record: for Increase in GADD34 band intensity vs negative control: high dose MMC 0.04 μg/cc; for GADD34 band: low dose MMC 0.005 μg/cc. The protocol: Cells were cultured with 12 cc culture media containing 0 μg/ml (untreated), 0.005 μg/ml (low dose), or 0.04 μg/ml (high dose) of Mitomycin-C (Bristol Laboratories, Princeton, N.J.). Cells were harvested by trypsinization at 24 and 48 hours. Total RNA was prepared using a total RNA isolation system (Promega, Madison, Wis.) and RNA content was measured by optical density at 260 nm. 7 μg of RNA per sample was loaded in a denaturing 1.2% agarose gel. Electrophoretic separation, RNA transfer to a nitrocellulose membrane (Intergen, Purchase, N.Y.), hybridization (50% formamide at 40° C.), and autoradiographic identification were done by standard techniques. The cDNA clone GADD34 containing a 2.4 kb insert was provided by Dr. A. Fomace, Jr, and the cDNA clone a-actin containing a 1.1 kb insert was acquired from ATCC (Manassas, Va.)(Hollander et al., J. Biol. Chem. 272:13731-13737, 1997). cDNA that had been excised from plasmid vectors was labelled with [^32P]dCTP by the random-primer labelling method (Stratagene, La Jolla, Calif.).

Assay [1] deals with OCUM-2MD3 peritoneal tumor. As to the kind of experiment: Murine xenograft model of gastric carcinomatosis, intraperitoneal treatment. The class given is in vivo, athymic nude mice. The settings on record: 0.1 mg/kg MMC i.p., 4 weeks. An excerpt:
An established murine xenograft model of gastric carcinomatosis was used as previously described (Bennett et al., Journal of Molecular Medicine 78:166-174, 2000; Yashiro et al., Clin. Exp. Metastasis 14:43-54, 1996). Intraperitoneal (i.p.) injection of 2×10^6 OCUM-2MD3 cells reliably develops disseminated peritoneal tumor that seeds the omentum, small and large bowel mesentery, diaphragm, gonadal fat and hepatic hilum. Macroscopic nodules are present within three days after injection, and the development of overwhelming tumor burden, bloody ascites and cachexia occurs by four weeks post-injection. To assess tumor burden, animals were eviscerated at sacrifice and peritoneal tumor was stripped from associated abdominal organs as previously described. Tumor burden was then assessed by weight.
Animals were all injected i.p. with 2×10^6 OCUM-2MD3 cells and treated 3d later. […] Animals were sacrificed 4 weeks later and tumor burden was assessed as described (Bennett et al., Journal of Molecular Medicine 78:166-174, 2000).

A further assay relates to MKN-45-P cells. The assay can be described thus: MTT cytotoxicity with Chou-Talalay combination analysis. The class given is cell-based, human. On the procedure: (§1) Cytotoxicity assays were performed by plating 1×10^4 cells/well into 96 well assay plates (Costar, Corning Inc., Corning, N.Y.). […] These ratios were determined by estimating the ED50 for each drug in initial experiments and by using these doses to determine the ratio of combination therapy. Percent cell survival for each group (vs. controls) was calculated 5d after treatment using a standard MTT (3-(4,5-dimethylthiazol-2-yl)-2,5-diphenyl-2H tetrazolium bromide) bioassay. A micro-plate reader was used to evaluate for the presence of the MTT-formazan product at 550 nm. Background optical density (OD) was subtracted from the OD readings of all samples. Cell viability was then calculated by dividing the mean absorbance (OD)(n=6) of the treated wells by the mean absorbance (OD)(n=6) of the untreated (control) wells.
(§2) This method defines the expected additive effect of two agents and then quantifies synergism or antagonism by determining how much the combination effect differs from the expected additive effect. The equations and computer software used for data analysis have been described in detail elsewhere (Chou, T., editors. Academic Press, New York. 61-102, 1991; Chou et al., Advances in Enzyme Regulation 22:27-55, 1984; Chou et al., Manual and Software for IBM-PC 1987; Chou, J., Academic Press, New York 223-244, 1991). The combination index equation is used to precisely analyze two-drug combinations. Interpretation of CI values are defined such that a CI=1 indicates an additive effect, while a CI<1 and a CI>1 indicate synergism and antagonism, respectively. Cytotoxicity data obtained from the experiments described above were used in the Chou-Talalay analysis. […] Based on the actual experimental data, computer software was used to calculate serial CI values over an entire range of effect levels (Fa) from 5-95%. […] Data were also analyzed by the isobologram technique, which is dose-oriented. The axes on an isobologram represent the doses of each drug. For any given Fa value, two points on the x and y axes are chosen that correspond to the doses of each drug necessary to generate that given Fa value. The straight line drawn between these two points corresponds to the possible combination doses that would be required to generate the same Fa value, assuming that the interaction between the two drugs is strictly additive. The observed experimental concentrations actually required to achieve a given Fa value are then added to the plot. If these points lie on the straight line then the effect is additive at that Fa value. If the point lies to the left of the straight line then the effect is synergistic, and if the point lies to the right of the straight line then the effect is antagonistic at that Fa value. Another calculation available using the combination index method is the dose-reduction index (DRI). The DRI is a determination of the fold-dose reduction allowed for each drug when given in synergistic combination, as compared to the concentration of single agent therapy needed to achieve the same effect level. A DRI>1 signifies a favorable reduction in toxicity while still maintaining therapeutic efficacy.

A further assay concerns OCUM-2MD3 cells. The assay is described as above. Format: cell-based, human. The protocol: as §1, §2
A further assay addresses T1, ribonucleotide reductase (Homo sapiens, UniProt P23921).
T1 construct: 50 mM HEPES (pH 7.2), and 100 μl extract (0.2-0.7 mg protein); endogenous in cells
T1 sequence (P23921 1-792): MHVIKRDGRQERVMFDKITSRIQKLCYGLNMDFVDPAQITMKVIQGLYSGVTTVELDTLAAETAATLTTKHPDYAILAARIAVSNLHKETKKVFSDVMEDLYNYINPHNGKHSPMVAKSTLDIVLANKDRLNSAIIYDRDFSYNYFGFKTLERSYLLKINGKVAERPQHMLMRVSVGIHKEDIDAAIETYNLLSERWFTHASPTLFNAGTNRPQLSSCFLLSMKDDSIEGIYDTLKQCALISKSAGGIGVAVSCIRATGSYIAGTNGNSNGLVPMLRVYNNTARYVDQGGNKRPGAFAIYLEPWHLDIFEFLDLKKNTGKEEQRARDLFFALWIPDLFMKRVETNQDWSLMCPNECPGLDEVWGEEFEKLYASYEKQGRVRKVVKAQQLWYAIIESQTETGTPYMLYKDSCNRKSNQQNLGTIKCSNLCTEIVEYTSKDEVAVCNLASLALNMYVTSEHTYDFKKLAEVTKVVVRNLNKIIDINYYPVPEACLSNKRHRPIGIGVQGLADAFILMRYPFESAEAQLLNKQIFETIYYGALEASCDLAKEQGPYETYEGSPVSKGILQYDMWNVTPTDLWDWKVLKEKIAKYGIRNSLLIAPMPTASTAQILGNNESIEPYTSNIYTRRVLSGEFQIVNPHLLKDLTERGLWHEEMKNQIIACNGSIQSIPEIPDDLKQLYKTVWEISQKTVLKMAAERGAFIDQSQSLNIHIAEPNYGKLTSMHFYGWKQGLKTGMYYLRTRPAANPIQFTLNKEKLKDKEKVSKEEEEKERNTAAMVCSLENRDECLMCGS
As to the kind of experiment: CDP reductase assay on HCT8 cell extracts incubated with FdUMP. The class given is biochemical. On the procedure: Cells grown in 250 cm^2-flasks were trypsinized and washed twice in ice-cold PBS. Cells were centrifuged at 300×g for 5 min at 4° C. and resuspended in 3 volumes of Low Salt Extraction Buffer (10 mM HEPES, pH 7.2, 2 mM DTT). Viable cell count of the resuspension was determined by trypan blue exclusion. After 30 min incubation on ice, the cell suspension was drawn 10× through a 28G½ needle. The crude homogenate was centrifuged at 100,000×g for 60 min at 4° C. to remove cellular debris. The supernatant fraction was dialyzed against 1,000 volumes of the Low Salt Extraction Buffer for 4 hours with one buffer change after 2 hours using dialysis cassettes with a molecular weight cut-off of 10,000 (Slide-A-Lyzer Dialysis Cassettes, Pierce, Rockford, Ill.). The dialyzed extract was snap-frozen in liquid nitrogen and stored at −80° C. until analysis. All extraction procedures were performed at 4° C.
Activity of ribonucleotide reductase was determined by a modified method of Steeper and Stuart (Steeper et al., Anal. Biochem. 34:123-130, 1970). Conversion of CDP to dCDP was monitored using [^14C]CDP (53 mCi/mmol, Movarek Biochemicals, Inc.) as substrate and rattlesnake venom from Crotalus adamanteus (Sigma) to hydrolyze nucleotides to nucleosides. The reaction mixture contained the following concentrations of ingredients in a final volume of 150 μl: 40 μM CDP, 10 μM [^14C]CDP (0.08 μCi), 6 mM DTT, 4 mM magnesium acetate, 2 mM ATP, 50 mM HEPES (pH 7.2), and 100 μl extract (0.2-0.7 mg protein). The enzyme reaction was carried out for 30 min at 37° C. and stopped by incubation at 100° C. for 4 min. Nucleotides were hydrolyzed by adding 50 μl carrier dCMP (6 mM dCMP, 2 mM MgCl2, 6 mM Tris-HCl, pH 8.8) and 25 μl snake venom suspension (50 mg/ml). After 3 hours incubation at 37° C., the reaction mixture was heat-inactivated by boiling for 4 min. Heat-precipitated material was removed by centrifugation at 14,000×g for 10 min at room temperature. [^14C]deoxycytosine was separated from [^14C]cytosine by covalent chromatography using phenylboronic acid-columns (BondElut PBA, Varian, Harbor City, Calif.). Triethenolamine Buffer (pH 10) was added to the supernatant fraction to a final concentration of 0.4 M and 1 ml of this mixture was applied to the column. Fractions were collected and measured for radioactivity by liquid scintillation spectrometry (LS 60001C Liquid Scintillation System, Beckman Instruments, Inc., Fullerton, Calif.). One unit of enzyme activity was defined as conversion of 1 nmol CDP to the product dCDP in 1 hour at 37° C.

As to `CO[C@@]12[C@H](COC(N)=O)C3=C(C(=O)C(C)=C(N)C3=O)N1C[C@@H]1N[C@@H]12` [MMC, Mitomycin C], the “Increase in GADD34 band intensity vs negative control” value is 2.49 fold in the assay with GADD34 mRNA (OCUM cells) (24 hours) and 3.21 fold in the assay with GADD34 mRNA (OCUM cells) (48 hours). In addition, the GADD34 band result with GADD34 mRNA (OCUM cells) (24 hours) is on record as “did not result in upregulation”; in the assay with GADD34 mRNA (OCUM cells) (24 hours, listed as Mitomycin C), “did not show any band”; in the assay on GADD34 mRNA (OCUM cells) (48 hours), “did not show any GADD34,band; also recorded: failed to demonstrate the presence of GADD34 mRNA”. Further, the “Mean peritoneal tumor burden (±SEM)” value in assay [1] was 1490 (±310) mg. Besides, the “MMC alone, dose needed to kill fraction affected” value with MKN-45-P cells (Fa 10%) came out at 0.014 ug/cc; with MKN-45-P cells (Fa 20%), 0.027 ug/cc; with MKN-45-P cells (Fa 30%), 0.040 ug/cc; with MKN-45-P cells (Fa 40%), 0.056 ug/cc; with MKN-45-P cells (Fa 50%) it was 0.077 ug/cc; in the assay with MKN-45-P cells (Fa 60%), 0.105 ug/cc. Further, the “MMC alone, dose needed to kill fraction affected” value with MKN-45-P cells (Fa 70%) is listed as 0.147 ug/cc; in the assay on MKN-45-P cells (Fa 80%), 0.222 ug/cc; with MKN-45-P cells (Fa 90%), 0.413 ug/cc; with MKN-45-P cells (Fa 95%) it was 0.732 ug/cc; with OCUM-2MD3 cells (Fa 10%), 0.009 ug/cc; with OCUM-2MD3 cells (Fa 20%), 0.014 ug/cc. Moreover, the “MMC alone, dose needed to kill fraction affected” value in the assay with OCUM-2MD3 cells (Fa 30%) was 0.017 ug/cc; with OCUM-2MD3 cells (Fa 40%), 0.021 ug/cc; in the assay with OCUM-2MD3 cells (Fa 50%) it was 0.026 ug/cc; with OCUM-2MD3 cells (Fa 60%) it was 0.031 ug/cc; in the assay on OCUM-2MD3 cells (Fa 70%), 0.038 ug/cc; in the assay with OCUM-2MD3 cells (Fa 80%) it was 0.048 ug/cc. Further, the “MMC alone, dose needed to kill fraction affected” value in the assay with OCUM-2MD3 cells (Fa 90%) is listed as 0.070 ug/cc; in the assay on OCUM-2MD3 cells (Fa 95%), 0.100 ug/cc. Moreover, the “Dose lowering when given as combination therapy” value with MKN-45-P cells (combination of MMC and G207) was 2-9 fold.
For `O=c1[nH]c(=O)n([C@H]2C[C@H](O)[C@@H](COP(=O)(O)O)O2)cc1F` [FdUMP, 2′-deoxy-5-fluorouridine 5′ monophosphate], on ribonucleotide reductase (0.001 mM FdUMP), the Activity is listed as 77.0%, the RR activity is listed as 0.47 ± 0.02 nmol dCDP / h and testing at 1 µM gave an inhibition of 23%. On ribonucleotide reductase (0.01 mM FdUMP), the Activity worked out at 73.8%, the RR activity was 0.45 ± 0.02 nmol dCDP / h and the inhibition at 10 µM was 26.2%. At ribonucleotide reductase (0.1 mM FdUMP), this molecule yielded an Activity of 70.5%, an RR activity of 0.43 ± 0.03 nmol dCDP / h and an inhibition at 100 µM of 29.5%. In addition, at ribonucleotide reductase (1 mM FdUMP), the Activity was 39.3%, the RR activity was determined as 0.24 ± 0.02 nmol dCDP / h, the “RR inhibition in words” value is “Substantial enzyme inhibition” and 1000 µM produced 60.7% inhibition. This molecule also returned an RR activity remaining at ribonucleotide reductase (0.001 to 0.1 mM FdUMP) of 80 to 70%. At ribonucleotide reductase (10 mM FdUMP), this molecule returned an Activity of 22.9%, an RR activity of 0.14 ± 0.01 nmol dCDP / h and an inhibition at 10000 µM of 77.1%.

By inhibition is commonly meant the change of the read-out against control, counted positive when it falls.
